Laboratory results reported in patent US10106601B2, “Inhibition of PLGF to treat philadelphia chromosome positive leukemia” (VIB VZW, priority 2008, dated 2018).
Entries after “also recorded” stand apart in the source; their conditions may differ.

Assays:
murine BMDSCs = assay: PIGF secretion by stromal cells incubated with imatinib; format: cell-based; conditions: increasing concentrations of imatinib
Procedure: For isolation of BMDSCs, the bone marrow from femurs and tibias was flushed, the erythrocytes eliminated with lysis buffer (150 mM NH4Cl, 0.1 mM EDTA, 10 mM KHCO3, pH 7.4) and subsequently the cells were cultured in DMEM medium supplemented with 15% FCS. After 24 hours, the non-adherent cell fraction was removed, and the adherent cells were further cultured and expanded for 3 weeks.
Concentrations of PIGF or VEGF were quantified in cell culture supernatants, peripheral blood plasma and bone marrow plasma using “Quantikine” mouse PIGF and mouse VEGF immunoassays (R&D Systems). Concentrations were expressed as pg/ml/10^5 cells or as pg/ml.

PIGF = PIGF levels in PB of CML patients treated with Imatinib; format: in vivo, human
BCR/ABL+ cell lines = assay: Induction of proliferation of leukemia cells by recombinant PIGF; format: cell-based, human and murine; conditions: in vitro
Procedure: Proliferation of leukemia cells and BMDSCs was analyzed by using MTT assays or by manual counting with a hemocytometer. Murine recombinant PIGF and anti-VEGFR-1 were obtained from R&D Systems. Anti-PIGF and control IgG1 were produced by Thrombogenics and Biolnvent and characterized as described (Fischer et al., 2007). PIGF was used at a concentration of 50 ng/ml and the antibodies in 100-fold molar excess, unless stated otherwise. For co-culture experiments, 10^5 BMDSCs were co-cultured for 48 hours with 4×10^5 leukemia cells alone or in presence of the respective antibodies in serum-free medium. Subsequently, numbers of adherent BMDSCs and non-adherent leukemia cells were determined and supernatants were harvested for analyses of PIGF and VEGF protein.

Bv-173 and KCL-22 cells = assay: Western Blots of ABL phosphorylation with and without PIGF; format: cell-based, human; conditions: cells incubated with and without PIGF; data not shown
Procedure: In order to elucidate, whether PIGF induces changes in ABL phosphorylation of BCR/ABL^+ leukemia cells, we performed Western Blots of Bv-173 and KCL-22 cells that were incubated with and without PIGF.

## Cc1ccc(NC(=O)c2ccc(CN3CCN(C)CC3)cc2)cc1Nc1nccc(-c2cccnc2)n1 [imatinib]
Murine BMDSCs
  PIGF secretion by BMDSCs: dose-dependent induction of PIGF
PIGF; patients with BCR/ABL/ABL ratio <1
  PIGF levels in PB: elevated to similar levels as in untreated, newly diagnosed CML patients
PIGF; patients with complete molecular remission (CMR) vs healthy subjects
  PIGF levels in PB: significantly higher

B1: PIGF: murine recombinant placental growth factor from R&D Systems, used at 50 ng/ml (protein, UniProt P49764 19-158, looked up)
Placenta growth factor: VHSQGALSAGNNSTEVEVVPFNEVWGRSYCRPMEKLVYILDEYPDEVSHIFSPSCVLLSRCSGCCGDEGLHCVPIKTANITMQILKIPPNRDPHFYVEMTFSQDVLCECRPILETTKAERRKTKGKRKRSRNSQTEEPHP
BCR/ABL+ cell lines
  induction of proliferation of leukemia cells by PIGF: dose dependently induced proliferation; also recorded: dose-dependent induction of proliferation
Bv-173 and KCL-22 cells
  phosphorylation of ABL: did not modify phosphorylation of ABL
